The record followed here is patent US20100168228A1, “NOVEL CHEMOTHERAPEUTIC AGENTS AGAINST INFLAMMATION AND CANCER” (RELIANCE LIFE SCIENCES PVT. LTD., priority 2006, published 2010).

In one assay the test system is NF-κB. Kind of assay: NF-κB activation assay, RAW 264.7. Format: cell-based, mouse. The conditions noted are these: RAW 264.7, 100 ng/ml LPS 30 min. As to the method: FIG. 4: Effect of CAMVE on NF-κB activation in different cell lines. A. HeLa, MCF-7, U937, were incubated at 37° C. for 3 h with 15 μM dose of CAMVE and then stimulated with 0.1 nM TNF for 30 min. After these treatments, nuclear extracts were prepared and assayed for NF-κB using BD Transfactor ELISA method. B. RAW 264.7 cells pretreated with indicated doses of CAMVE were stimulated with 100 ng/ml LPS for 30 min and assayed for NF-κB activation.
Cell pellet was resuspended in lysis buffer (10 mM HEPES, pH 7.9, 1.5 mM MgCl2, 10 mM KCl, 1 mM PMSF, 1 mMDTT, 0.5% NP 40, 0.1 mM EGTA and 0.1 mM EDTA) and allowed to swell on ice for 15 min, followed by centrifugation at 3300×g for 20 min. The cell pellet was resuspended in a volume of lysis buffer equal to the cell pellet volume. The cell suspension was slowly drawn down into a syringe and ejected the content in a single stroke. Disrupted cells were incubated for 15 min on ice, and the disrupted cell suspension was centrifuged at 10,000×g for 20 min at 4° C. […]
The assay was performed by using wells coated with oligonucleotides having the consensus DNA binding sites for the specific transcription factors. […] Bound transcription factor was detected by a specific Primary Antibody. […] After addition of the substrate, the Absorbance was recorded at 655 nm.

In a further assay the test system is Cyclin D1. The assay is described as follows: Cyclin D1 mRNA, semi-quantitative RT-PCR. Format: cell-based, human. The note with it: various concentrations. The protocol: FIG. 10: Effect of CAMVE on Cell Cycle distribution. A. 5×10^5 cells were treated with indicated concentrations of CAMVE as indicated and cell cycle analyses were performed using Flow Cytometry as described in the “Materials and Methods”. The percentage of cells in G1, S, and G2-M phase were calculated using Cell Quest analysis software and are represented within the histograms. The data shown here are from a representative experiment repeated three times with similar results. B. Expression of human Cyclin D1, was assayed by semi quantitative RT-PCR analysis with GAPDH as internal control. […]
Total RNA was isolated using the standard TRIzol method (Gibco BRL). Briefly, 3×10^6 cells were treated with different concentrations of the compounds as indicated in the legends to Figures and after harvesting the cell pellet was resuspended in 1 ml of TRIzol with repeated pipetting. The homogenized sample was incubated at RT for 5 min to permit complete dissociation of the nucleoprotein complexes. 200 μl of chloroform was added and the tubes were shaken vigorously for 15 sec by hand and then incubated at RT for 3 mins. The samples were then centrifuged at 10,000 RPM for 15 mins at 4° C. […]
Changes in gene expression were verified by semi-quantitative RT-PCR using GAPDH as an internal normalization standard. 1 μg of total RNA (quantified by spectrophotometer) was used to reverse transcribe into cDNA. […]

Molecules are shown by their SMILES.

For `COC(=O)c1ccc(OC(=O)/C=C/c2ccc(O)c(O)c2)c(OC)c1` [compound 1, Methyl 4-{[(2E)-3-(3,4-dihydroxyphenyl)prop-2-enoyl]oxy}-3-methoxybenzoate], in the assay with NF-κB, the “LPS induced NF-κB activation” value is “inhibited NF-κB activation in murine cells”. In addition, the “expression of cyclin D1 m-RNA” value in the assay on Cyclin D1 is on record as “notably decreased”.
